Consider three compounds from PMC9112336 (ACS infectious diseases, 2022).

Structures are written as SMILES.

Holding throughout (format): cell-based
In assay [1] the test system is vesicular acidification in HEK293 cells.
Assay [2] has as its system mCherry-LAMP1 expressing HEK293 cells.
The test system of assay [3] is GFP-Rab5 expressing HEK293 cells.
Assay [4] has as its system mCherry-LAMP1 expressing HEK293 cells. The source holds these as a separate data set.
For assay [5] the test system is unchanged. The source holds these as a separate data set.
The test system of assay [6] is endocytic vesicle pH in HEK293 cells.

Turning to `COc1cc2c(O)c3c(c(-c4ccc5c(c4)OCO5)c2cc1OC)C(=O)OC3` [1.1, diphyllin], in assay [1], the “acidification activity after the 24 h washout period” value is given as 90.2 ± 11.5% and the “acidification activity, initial response (immediate post washout)” value is given as 57.5 ± 9.0%.

In the case of `Cc1cccc(/C=N/Nc2cc(N3CCOCC3)nc(OCCc3ccccn3)n2)c1` [Apilimod, apilimod], in assay [2], the “effect on LAMP1+ structures compared to DMSO” value was “significantly altered LAMP1 structures”.

Regarding `CO/C1=C\C(C)=C\[C@@H](C)[C@@H](O)[C@@H](C)C/C(C)=C/C=C/[C@H](OC)[C@@H]([C@@H](C)[C@@H](O)[C@H](C)[C@@]2(O)C[C@@H](O)[C@H](C)[C@@H](C(C)C)O2)OC1=O` [bafilomycin, bafilomycin A1], in assay [3], the “average size of Rab5+ punctate vesicles” value came out at 400 nm. The “average number of dilated vesicles >1 μm per cell, pre-treatment before apilimod” value in assay [4] is given as approximately 1. Moreover, in assay [5], the “average number of large, dilated vesicles per cell, treatment after apilimod” value is approximately 1. In addition, the “reversibility of inhibition of vesicular acidification” value in assay [1] was “full recovery of acridine orange pH-dependent shift to red was not observed”. In assay [6], the “large (>1 μm) vesicle pHrodo fluorescence” value is on record as “significant decrease”.
